Activity calls are given as the source filed them. The calls are words filed in the database; no cut-off is given here.
Legend:
[1] = system: PC-12; assay: Induction of HSP70 expression in rat PC12 cells at 10 uM incubated for 4 hrs by Western blot analysis; type: functional, cell-based
[2] = system: PC-12; assay: Induction of HSP70 expression in rat PC12 cells at 5 to 30 uM incubated for 4 hrs by Western blot analysis; type: functional, cell-based
[3] = system: PC-12; assay: Induction of HSP70 expression in rat PC12 cells at 10 uM incubated for 4 hrs in presence of human betaNGF by Western blot analysis; type: functional, cell-based
[4] = system: PC-12; assay: Induction of HSP70 expression in rat PC12 cells at 10 to 20 uM incubated for 4 hrs by Western blot analysis; type: functional, cell-based
[5] = system: PC-12; assay: Induction of HSP70 expression in rat PC12 cells at 7.5 uM incubated for 4 hrs by Western blot analysis; type: functional, cell-based
[6] = system: PC-12; assay: Induction of HSP70 expression in rat PC12 cells at 10 uM by Western blot analysis; type: functional, cell-based; conditions: TDE = time-dependent effect
[7] = system: PC-12; assay: Induction of HSP70 expression in rat PC12 cells at 10 uM incubated for 24 hrs by Western blot analysis; type: functional, cell-based
[8] = system: PC-12; assay: Induction of HSP70 in rat PC12 cells assessed as upregulation of HSP70 mRNA at 10 uM incubated for 4 hrs by qRT-PCR analysis; type: cell-based
[9] = system: PC-12; assay: Cytotoxicity against rat PC12 cells assessed as reduction in cell viability at 30 uM incubated for 1 day by MTT assay relative to control; type: cell-based; conditions: pc-12, 24 h

Compound | Activity [1] | also measured
COC(=O)[C@H](Cc1cn(C(c2ccccc2)(c2ccccc2)c2ccccc2)cn1)NCc1cc(N(C)C)cc(CN[C@@H](Cc2cn(C(c3ccccc3)(c3ccccc3)c3ccccc3)cn2)C(=O)OC)n1 | inactive | –
COC(=O)[C@H](Cc1c[nH]cn1)NCc1cc(N(C)C)cc(CN[C@@H](Cc2cn(Cc3ccccc3)cn2)C(=O)OC)n1 | inactive | –
COC(=O)[C@H](Cc1c[nH]cn1)NCc1cc(N(C)C)cc(CN[C@@H](Cc2cn(C)cn2)C(=O)OC)n1 | inactive | –
COC(=O)[C@H](Cc1c[nH]cn1)NCc1cccc(CN[C@@H](Cc2cn(C(c3ccccc3)(c3ccccc3)c3ccccc3)cn2)C(=O)OC)c1 | inactive | –
BLEOMYCIN | inactive | Activity [2]: inactive
COC(=O)[C@H](Cc1c[nH]cn1)NCc1cccc(CN[C@@H](Cc2cn(C(c3ccccc3)(c3ccccc3)c3ccccc3)cn2)C(=O)OC)n1 | Active | Activity [3]: Active
COC(=O)[C@H](Cc1cn(Cc2ccccc2)cn1)NCc1cc(N(C)C)cc(CN[C@@H](Cc2cn(Cc3ccccc3)cn2)C(=O)OC)n1 | inactive | –
TEPRENONE | inactive | –
COC(=O)[C@H](Cc1c[nH]cn1)NCc1cc(N(C)C)cc(CN[C@@H](Cc2cn(C(c3ccccc3)(c3ccccc3)c3ccccc3)cn2)C(=O)OC)n1 | Active | Activity [4]: Active; Activity [5]: inactive; Activity [6]: Tde; Activity [7]: Active; Activity [8]: Active; Activity [9]: > 50%; Activity [3]: Active
COC(=O)[C@H](Cc1cn(C)cn1)NCc1cc(N(C)C)cc(CN[C@@H](Cc2cn(C)cn2)C(=O)OC)n1 | inactive | –

— ChEMBL document CHEMBL4616622, “HSP70 induction by bleomycin metal core analogs” (Bioorg Med Chem Lett, 2020)
